Measurements taken from patent US20200399238A1, “THERAPEUTIC AURONES” (MIDDLE TENNESSEE STATE UNIVERSITY, priority 2016, published 2020).
Like-named read-outs stand apart in the source and are kept apart here.

Key:
[1] = system: Trypanosoma brucei brucei 427 cells; test: T. brucei culture and assay (PrestoBlue); assay type: cell-based
[2] = system: Leishmania amazonensis promastigotes expressing beta-lactamase; test: microbe, parasite or virus in culture; assay type: cell-based; conditions: for IC50: Leishmania amazonensis, read-out: IC50 L. amaz.
[3] = system: rat skeletal muscle cell line, L6; test: cells; assay type: cell-based
[4] = system: Trypanosoma cruzi Tulahuen cells expressing beta-galactosidase; test: T. cruzi intracellular assay (beta-galactosidase, L6 host cells); conditions: for Selectivity L6/TC-I: Table 3A; for Selectivity L6/TC-I / Selectivity L6/Tc-I: estimated from highest L6 dose tested where no L6 IC50; for IC50: Trypanosoma cruzi, TULAHUEN; for Selectivity L6/Tc-I: Table 3B
[5] = system: C. albicans (ATCC strain 90028); test: Antifungal microdilution broth assay (PrestoBlue), C. albicans; assay type: cell-based, Candida albicans; conditions: Candida albicans, ATCC90028, Table 4B; C. albicans; 100 μM; value ± spread; read-out: Percent Inhibition (at 100 μM)
Method: Sigma-Aldrich) was used as the base medium for testing. […] solution of morpholinepropanesulfonic acid (MOPS; Sigma-Aldrich) was added to the RPMI to a final concentration of 0.165 M for buffering (RPMI-MOPS). This medium was adjusted to a pH of 7.0 with 10 M NaOH and filter sterilized. C. albicans (ATCC strain 90028), C. [NT] strain 66032), and C. tropicalis (ATCC strain 750) were cultured on potato dextrose agar (Sigma-Aldrich) plates, and incubated at 35° C. for 24 hours. For antifungal testing, overnight colonies were adjusted to 1.5×10^3 cells/mL, hereafter referred to as the test inoculum. PrestoBlue® (Life Technologies, Invitrogen, Carlsbad, Calif.), a resazurin-based cell viability reagent that, in metabolically active cells, is reduced from blue, non-fluorescent resazurin, to red, fluorescent resorufin, was used to assess inhibition of yeast growth by the aurones. […] Following addition of aurone, plates were then incubated for 24 hours at 35° C. PrestoBlue was added to a final concentration of 10% in each well and fluorescence read at 560 nm excitation and 590 nm emission, per manufacturer instructions, using a SpectraMax M2e spectrophotometer (Molecular Devices, LLC, Sunnyvale, Calif.). To optimize the PrestoBlue reduction time, RFUs were collected at 15 minute intervals for 4 hours using a reference antifungal. […] IC50 determination was calculated using GraphPad Prism version 7.01 for Windows (GraphPad Software, Inc., La Jolla, Calif.) from the RFUs at dilution points. Calculations were made with a nonlinear regression after transforming the molar concentrations of the aurones into the logarithmic form. Graphing was accomplished utilizing the same program following a four parameter curve fitting sigmoidal plot of the data. All aurones and controls were tested in triplicate and all testing was repeated in at least three independent experiments.

[6] = Table 2, mean of 2(+) independent trials, read-out: IC50 T. brucei
[7] = Trypanosoma brucei, Table 1, mean of 2(+) independent trials, read-out: IC50 T. brucei
[8] = Table 2, L6 IC50 / L. amazonensis IC50
[9] = Rattus norvegicus, Table 1, read-out: IC50 Toxicity (L6)
[10] = Rattus norvegicus, Table 3A, weighted means of two or more independent trials, read-out: IC50 L6
[11] = Table 2, L6 mammalian cells, read-out: IC50 Toxicity (L6)
[12] = read-out: IC50 T. cruzi, Table 1, intracellular assay, mean of 2(+) trials (^c one trial)
[13] = read-out: IC50 T. cruzi, Table 2, intracellular assay, mean of 2(+) independent trials
[14] = read-out: IC50 TC-I, Table 3A, weighted means of two or more independent trials
[15] = Rattus norvegicus, Table 3B, weighted means of two or more independent trials, read-out: IC50 L6
[16] = Table 1, intracellular T. cruzi IC50
[17] = Table 2, L6 IC50 / T. cruzi IC50 (intracellular assay)
[18] = read-out: IC50 TC-I, Table 3B, weighted means of two or more independent trials
[19] = Trypanosoma brucei, read-out: T. brucei IC50 dose

| SMILES | melting point | IC50 [1, 7] | IC50 [2] | Selectivity L6/La ([2]; Table 1) | IC50 [3, 9] | IC50 [4, 12] | IC50 [4, 13] | also measured |
| --- | --- | --- | --- | --- | --- | --- | --- | --- |
| COc1cc(OC)c2c(c1)O/C(=C\c1ccc(C)cc1)C2=O [Aurone 7000, (Z)-4,6 dimethoxy-2-(4-methylbenzalidene) benzofuran-3(2H)-one] | 145 to 148 °C | – | – | – | – | – | – | – |
| O=C1/C(=C/c2cccc(F)c2)Oc2ccccc21 [Aurone 9024, (Z)-2-(3-fluorobenzylidene)benzofuran-3(2H)-one] | 111 to 113 °C | > 50 µM | 20.1 µM | >4.98 | > 100 µM | 6.67 µM | 6.67 µM | IC50 [1, 6]: > 50 µM; Selectivity L6/La [2, 8]: >4.98; IC50 [3, 10]: > 100 µM; IC50 [3, 11]: > 100 µM; Selectivity L6/TC-I [4]: 14.99; IC50 [4, 14]: 6.67 µM |
| O=C1/C(=C/c2cc(Br)ccc2Br)Oc2ccccc21 [Aurone 3003, (Z)-2-(2,5-dibromobenzylidene)benzofuran-3(2H)-one] | 181 to 182 °C | > 50 µM | 16 µM | >6.24 | > 100 µM | > 50 µM | – | IC50 [3, 10]: > 100 µM; IC50 [4, 14]: > 50 µM |
| O=C1/C(=C/c2ccc(Br)cn2)Oc2ccccc21 [Aurone 3011, (Z)-2-((5-bromopyridin-2-yl)methylene)benzofuran-3(2H)-one] | 192 to 193 °C | > 50 µM | 2.61 µM | >38.31 | > 100 µM | 32.9 µM | 32.9 µM | IC50 [1, 6]: > 50 µM; Selectivity L6/La [2, 8]: >38.31; IC50 [3, 15]: > 100 µM; IC50 [3, 11]: > 100 µM; Selectivity L6/Tc [4, 16]: >3.04; Selectivity L6/Tc [4, 17]: >3.04; Selectivity L6/Tc-I [4]: >3.04; IC50 [4, 18]: 32.9 µM |
| Cc1ccc(/C=C2\Oc3cc(O)ccc3C2=O)cc1 [Aurone 2904, (Z)-6-hydroxy-2-(4-methylbenzylidene)benzofuran-3(2H)-one] | 258 to 264 °C | > 50 µM | 5.63 µM | – | 70.3 µM | > 50 µM | > 50 µM | – |
| O=C1/C(=C/c2cc(Br)cs2)Oc2ccccc21 [Aurone 9061, (Z)-2-((4-bromothiophen-2-yl)methylene)benzofuran-3(2H)-one] | 125 to 129 °C | > 50 µM | 1.7 µM | – | > 100 µM | > 50 µM | > 50 µM | IC50 [3, 15]: > 100 µM; IC50 [4, 18]: > 50 µM |
| Cc1[nH]cnc1/C=C1\Oc2ccccc2C1=O [Aurone 9059, (Z)-2-((5-methyl-H-imidazol-4-yl)methylene)benzofuran-3(2H)-one] | 180 to 183 °C | > 50 µM | 3.96 µM | 80.99 | 321 µM | 5.25 µM | 5.25 µM | IC50 [1, 6]: > 50 µM; IC50 [1, 19]: > 50 µM; Selectivity L6/La [2, 8]: 80.99; IC50 [3, 15]: 321 µM; selectivity for T. cruzi (L6/Tc) [4]: 61.09; Selectivity L6/Tc [4, 16]: 61.09; Selectivity L6/Tc [4, 17]: 61.09; Selectivity L6/Tc-I [4]: 61.09; IC50 [4, 18]: 5.25 µM; IC50 ([4]; read-out: T. cruzi IC50 dose): 5.25 µM |
| COC(=O)c1ccc(/C=C2\Oc3ccccc3C2=O)cc1 [Aurone 9047, Methyl (Z)-4-((3-oxobenzofuran-2(3H)-ylidene)methyl)benzoate] | 144 to 147 °C | > 50 µM | 24.2 µM | >4.13 | > 100 µM | > 50 µM | – | IC50 [3, 10]: > 100 µM; IC50 [4, 14]: > 50 µM |
| O=C1/C(=C/c2cc(Br)c(Br)s2)Oc2ccccc21 [Aurone 9050, (Z)-2-((4,5-dibromothiophen-2-yl)methylene)benzofuran-3(2H)-one] | 185 to 190 °C | > 50 µM | 9.24 µM | – | > 100 µM | > 50 µM | > 50 µM | IC50 [3, 15]: > 100 µM; IC50 [4, 18]: > 50 µM |
| COc1ccc2c(c1)O/C(=C\c1cccs1)C2=O [Aurone 5001, (Z)-6-methoxy-2-(thiophen-2-ylmethylene)benzofuran-3(2H)-one] | 99 to 103 °C | > 50 µM | 21.1 µM | >4.73 | > 100 µM | > 50 µM | – | – |
| O=C1/C(=C/c2ccc(O)cc2)Oc2ccccc21 [Aurone 9068, (Z)-2-(4-hydroxybenzylidene)benzofuran-3(2H)-one] | 258 to 260 °C | > 50 µM | 1.57 µM | – | > 200 µM | > 50 µM | > 50 µM | – |
| CC(=O)Nc1ccc(/C=C2\Oc3ccccc3C2=O)cc1 [Aurone 3006, (Z)-N-(4-((3-oxobenzofuran-2(3H)-ylidene)methyl)phenyl)acetamide] | 260 to 270 °C | > 50 µM | 12.5 µM | >7.99 | > 100 µM | > 50 µM | – | IC50 ([3]; Rattus norvegicus, Table 3C, weighted means of two or more independent trials, read-out: IC50 L6): > 100 µM; IC50 ([4]; read-out: IC50 TC-I, Table 3C, intracellular T. cruzi, weighted means of two or more independent trials): > 50 µM |
| O=C1/C(=C/c2cccs2)Oc2cc(O)ccc21 [Aurone 2901, (Z)-6-hydroxy-2-(thiophen-2-ylmethylene)benzofuran-3(2H)-one] | 300 to 303 °C | > 50 µM | 19.4 µM | – | > 100 µM | > 50 µM | – | – |
| COc1ccc2c(c1)O/C(=C\c1ccc(C)cc1)C2=O [Aurone 5002, (Z)-6-methoxy-2-(4-methylbenzylidene)benzofuran-3(2H)-one] | 115 to 122 °C | 40.7 µM | 10.5 µM | – | 183 µM | > 50 µM | > 50 µM | – |
| O=C1/C(=C/c2cccc(I)c2)Oc2ccccc21 [Aurone 9028, (Z)-2-(3-iodobenzylidene)benzofuran-3(2H)-one] | 99 to 105 °C | > 50 µM | 2.61 µM | >38.31 | > 100 µM | 7.54 µM | 7.54 µM | IC50 [1, 6]: > 50 µM; Selectivity L6/La [2, 8]: >38.31; IC50 [3, 10]: > 100 µM; IC50 [3, 11]: > 100 µM; Selectivity L6/Tc [4, 16]: >13.26; Selectivity L6/Tc [4, 17]: >13.26; Selectivity L6/TC-I [4]: >13.26; IC50 [4, 14]: 7.54 µM |
| COc1cc(/C=C2\Oc3ccccc3C2=O)ccc1O [Aurone 9053, (Z)-2-(4-hydroxy-3-methoxybenzylidene)benzofuran-3(2H)-one] | – | > 50 µM | 2.15 µM | – | > 200 µM | > 50 µM | > 50 µM | inhibition at 100 µM [5]: 11.2 ± 2.2% |
| COc1cccc(/C=C2\Oc3ccccc3C2=O)c1O [Aurone 9055, (Z)-2-(2-hydroxy-3-methoxybenzylidene)benzofuran-3(2H)-one] | – | > 50 µM | 18.5 µM | – | > 100 µM | > 50 µM | – | inhibition at 100 µM [5]: 16.7 ± 0.2% |
| O=C1/C(=C/c2ccccc2I)Oc2ccccc21 [Aurone 9003, (Z)-2-(2-iodobenzylidene)benzofuran-3(2H)-one] | 145 to 148 °C | > 50 µM | – | – | > 100 µM | 15.4 µM | – | IC50 [3, 10]: > 100 µM; Selectivity L6/Tc [4, 16]: >6.50; Selectivity L6/TC-I [4]: >6.50; IC50 [4, 14]: 15.4 µM |
| Cc1ccc(/C=C2\Oc3ccccc3C2=O)cc1 [Aurone 8c, (Z)-2-(4-methylbenzylidene)benzofuran-3(2H)-one] | 75 to 76 °C | – | – | – | – | – | – | IC50 [1, 19]: > 50 µM; activity against T. cruzi [4]: effective against T. cruzi only; IC50 ([4]; read-out: T. cruzi IC50 dose): < 10 µM |
